# Data from US20260109731A1, “NE[…] USE THEREOF” (HUNAN MINGRUI PHARMACEUTICAL CO., LTD., priority 2023, published 2026).
# Several values for one entry are separate records, joined by “and”; a condition that tells them apart may be missing. Identical values can stand only once. Like-named read-outs stand apart in the source and are kept apart here.
# What was measured:
# [1] = In vitro phase I metabolic stability in male SD rat hepatic microsomes; format: in vitro ADME; conditions: male SD rat hepatic microsomes
# Method: Phase I metabolic stability kit (purchased from HUIZHI HEYUAN BIOTECHNOLOGY (BEIJING) CO., LTD), with the following components of the product:
# Positive substrate testosterone solution (10 mM): diluted with acetonitrile to prepare a 200 μM solution for later use; stop solution & internal standard (testosterone-D3): dissolved with acetonitrile to prepare a 5 ng/mL solution for later use.
# • 1) all components of the kit were thawed in an ice bath and placed on ice for later use; • 2) an incubation system (taking 200 μL system as an example) was prepared:
# • 3) 160 μL of pre-incubation solution B was added into the centrifuge tube containing 40 μL of pre-incubation solution A, uniform mixing was performed by pipetting three times, and the resulting mixture was immediately placed in a water bath at 37° C. for incubation and timing was started; • 4) at predetermined incubation time points (0, 5, 10, 15, 30, 45, 60 minutes), the incubation solution was quantitatively taken out, and 200 μL of stop solution (5 ng/mL testosterone-D3 in acetonitrile, pre-chilled at 4° C.) was added to terminate the reaction (stop solution volume: incubation system volume=1:1). Experimental samples were prepared in triplicate at each time point.
# To verify the validity of the experiment, a positive control group was established concurrently in the whole experiment to evaluate whether the incubation system functioned properly, with the preparation method as follows: the compound to be tested was replaced with the positive substrate testosterone (200 μM in acetonitrile) from the phase I metabolic stability kit, and the other components of the incubation system and experimental method were the same as those of the experimental group.
# The ratio of the chromatographic peak area of the compound to be tested to the chromatographic peak area of the testosterone-D3 (internal standard) was used as the calculated data. By taking the peak area ratio at time zero of the test compound as 100%, the remaining percentages were calculated by comparing the peak area ratio at each time point with the peak area ratio at time zero, and the natural logarithms of the remaining percentages of the substrate at each time point are then subjected to linear regression against the incubation times to obtain the slope k. Therefore, the in vitro metabolic half-life (T1/2) and intrinsic clearance (CLint) were calculated using the following formulas: […]
# [2] = Pharmacokinetic analysis of tail vein administration in mice; conditions: female, ICR, mouse, 5 mg/kg
# Method: Female ICR mice (body weight: 20 g to 22 g) were purchased from BEIJING HFK BIOSCIENCE CO., LTD.
# The animals were sacrificed at blood collection time points (5 min, 1 h and 8 h) for brain tissue collection, and the collected brain tissues were stored at −80° C. for later testing.
# 100 μL of plasma sample, 10 μL of internal standard solution (100 ng/mL testosterone D-3 solution), and 310 μL of acetonitrile were accurately measured, uniformly mixed by vortexing, and centrifuged (14000 rpm, 4° C.), and a resulting supernatant was taken to obtain the plasma sample.
# About 100 mg of brain tissue sample was taken, and accurately weighed, 100 μL of water and 400 μL acetonitrile were accurately added thereto, and a resulting mixture was subjected to homogenization. 100 μL of brain tissue homogenate, 10 μL of internal standard solution (100 ng/mL testosterone D-3 solution), and 310 μL of acetonitrile were accurately measured, uniformly mixed by vortexing, and centrifuged (14000 rpm, 4° C.), and a resulting supernatant was taken to obtain the brain tissue sample.
# 100 μL of blank plasma sample, 10 μL of mixed standard solution, 10 μL of internal standard solution (100 ng/mL testosterone D-3 solution), and 300 μL of acetonitrile were accurately measured, uniformly mixed by vortexing, and centrifuged (14000 rpm, 4° C.), and a resulting supernatant was taken to obtain the plasma matrix standard solution.
# About 100 mg of blank brain tissue sample was taken, and accurately weighed, 100 μL of water and 400 μL acetonitrile were accurately added thereto, and a resulting mixture was subjected to homogenization using a homogenizer. 100 μL of brain tissue homogenate, 10 μL of mixed standard solution, 10 μL of internal standard solution (100 ng/mL testosterone D-3 solution) and 300 μL of acetonitrile were accurately measured, uniformly mixed by vortexing, and centrifuged (14000 rpm, 4° C.), and a resulting supernatant was taken to obtain the Brain tissue matrix standard solution.
# The UPLC-MS/MS method with testosterone D-3 as the internal standard was used to perform analysis and determination by the standard curve method.
# [3] = Pharmacokinetic analysis of oral administration to male rats; format: in vivo; conditions: oral gavage 12 mg/kg; for Blood drug concentration: individual rats 1-7
# Source text: Male SD rats (body weight: 230 g to 250 g) were purchased from BEIJING HFK BIOSCIENCE CO., LTD.
smiles,measurement,setting,value
CC(=O)[C@H]1CC[C@H]2[C@@H]3CC[C@H]4C[C@H](O[N+](=O)[O-])CC[C@]4(C)[C@H]3CC[C@]12C [Compound 1],half-life,"[1]; liver microsomes, NADPH system, 37° C., read-out: T1/2 (in vitro metabolic half-life)",1.56 h
same,microsomal CLint,"[1]; liver microsomes, read-out: intrinsic clearance",14.8 µL/min/mg
same,In vitro CLint,[1]; 37° C.,14.82 μL/min/mg protein
same,k (slope of ln remaining percentage against incubation time),[1]; 37° C.,−0.0074
same,concentration at 5 min,"[2]; brain, intravenous",1140 ng/g
same,concentration at 1 h,"[2]; brain, intravenous",652 ng/g
same,concentration at 8 h,"[2]; brain, intravenous",31 ng/g
same,Kp at 5 min,"[2]; brain/plasma, intravenous",0.65
same,Kp at 1 h,"[2]; brain/plasma, intravenous",7.58
same,Kp at 8 h,"[2]; brain/plasma, intravenous",2.27
same,clearance,"[2]; plasma, iv",197 mL/min/kg
same,half-life,"[2]; plasma, iv",0.84 h
same,Blood drug concentration,"[3]; male SD rats, 0.5 h, 12 mg/kg",4.1 ng/mL and 5.7 ng/mL and 16.2 ng/mL and 8.7 ng/mL and 8.3 ng/mL and 8.1 ng/mL and 8.4 ng/mL
same,Blood drug concentration,"[3]; male SD rats, 1 h, 12 mg/kg",14.1 ng/mL and 18.9 ng/mL and 35.9 ng/mL and 31.5 ng/mL and 22.3 ng/mL and 23.8 ng/mL and 50.6 ng/mL
same,Blood drug concentration,"[3]; male SD rats, 2 h, 12 mg/kg",38.2 ng/mL and 85.8 ng/mL and 132.2 ng/mL and 88.8 ng/mL and 111.4 ng/mL and 123 ng/mL and 251.1 ng/mL
same,Blood drug concentration,"[3]; male SD rats, 3 h, 12 mg/kg",71.9 ng/mL and 121.8 ng/mL and 288.6 ng/mL and 243.6 ng/mL and 103.9 ng/mL and 130.9 ng/mL and 616.7 ng/mL
same,Blood drug concentration,"[3]; male SD rats, 4 h, 12 mg/kg",95.1 ng/mL and 147 ng/mL and 279.6 ng/mL and 252.2 ng/mL and 270.9 ng/mL and 343.8 ng/mL and 318.5 ng/mL
same,Blood drug concentration,"[3]; male SD rats, 5 h, 12 mg/kg",250.4 ng/mL and 142.4 ng/mL and 252.4 ng/mL and 284.1 ng/mL and 262.5 ng/mL and 410.7 ng/mL and 582.4 ng/mL
same,Blood drug concentration,"[3]; male SD rats, 6 h, 12 mg/kg",259.8 ng/mL and 263.9 ng/mL and 161.2 ng/mL and 260.7 ng/mL and 287.5 ng/mL and 409.8 ng/mL and 687.1 ng/mL
same,Blood drug concentration,"[3]; male SD rats, 8 h, 12 mg/kg",121.7 ng/mL and 276.1 ng/mL and 383.6 ng/mL and 523.1 ng/mL and 496.4 ng/mL and 78.9 ng/mL and 556.5 ng/mL
same,Blood drug concentration,"[3]; male SD rats, 10 h, 12 mg/kg",167.3 ng/mL and 1144.3 ng/mL and 424.6 ng/mL and 914.9 ng/mL and 382.7 ng/mL and 196.1 ng/mL and 396.3 ng/mL
same,Blood drug concentration,"[3]; male SD rats, 12 h, 12 mg/kg",513.5 ng/mL and 873.9 ng/mL and 343.7 ng/mL and 730.7 ng/mL and 234.9 ng/mL and 303.8 ng/mL and 285.4 ng/mL
same,Blood drug concentration,"[3]; male SD rats, 18 h, 12 mg/kg",68.5 ng/mL and 110.5 ng/mL and 196.7 ng/mL and 97 ng/mL and 83.3 ng/mL and 73.4 ng/mL and 134.5 ng/mL
same,Blood drug concentration,"[3]; male SD rats, 24 h, 12 mg/kg",13.7 ng/mL and 68.5 ng/mL and 61.6 ng/mL and 20.7 ng/mL and 27.6 ng/mL and 13.8 ng/mL and 133.4 ng/mL
same,Tmax,"[3]; male SD rats, 12 mg/kg",9.7 h
same,concentration at 0.5 h,"[3]; male, SD, rat, plasma, po, 12 mg/kg, 0.5 h, mean of 7 rats, read-out: Blood drug concentration, Mean value",8.5 ng/mL
same,concentration at 1 h,"[3]; male, SD, rat, plasma, po, 12 mg/kg, 1 h, mean of 7 rats, read-out: Blood drug concentration, Mean value",28.2 ng/mL
same,concentration at 2 h,"[3]; male, SD, rat, plasma, po, 12 mg/kg, 2 h, mean of 7 rats, read-out: Blood drug concentration, Mean value",119 ng/mL
same,concentration at 3 h,"[3]; male, SD, rat, plasma, po, 12 mg/kg, 3 h, mean of 7 rats, read-out: Blood drug concentration, Mean value",225 ng/mL
same,concentration at 4 h,"[3]; male, SD, rat, plasma, po, 12 mg/kg, 4 h, mean of 7 rats, read-out: Blood drug concentration, Mean value",244 ng/mL
same,concentration at 5 h,"[3]; male, SD, rat, plasma, po, 12 mg/kg, 5 h, mean of 7 rats, read-out: Blood drug concentration, Mean value",312 ng/mL
same,concentration at 6 h,"[3]; male, SD, rat, plasma, po, 12 mg/kg, 6 h, mean of 7 rats, read-out: Blood drug concentration, Mean value",333 ng/mL
same,concentration at 8 h,"[3]; male, SD, rat, plasma, po, 12 mg/kg, 8 h, mean of 7 rats, read-out: Blood drug concentration, Mean value",348 ng/mL
same,concentration at 10 h,"[3]; male, SD, rat, plasma, po, 12 mg/kg, 10 h, mean of 7 rats, read-out: Blood drug concentration, Mean value",518 ng/mL
same,concentration at 12 h,"[3]; male, SD, rat, plasma, po, 12 mg/kg, 12 h, mean of 7 rats, read-out: Blood drug concentration, Mean value",469 ng/mL
same,concentration at 18 h,"[3]; male, SD, rat, plasma, po, 12 mg/kg, 18 h, mean of 7 rats, read-out: Blood drug concentration, Mean value",109 ng/mL
same,concentration at 24 h,"[3]; male, SD, rat, plasma, po, 12 mg/kg, 24 h, mean of 7 rats, read-out: Blood drug concentration, Mean value",48.5 ng/mL
same,Tmax,"[3]; male, SD, rat, plasma, po, 12 mg/kg, read-out: Tmax",~10 h
same,AUC(0-inf),"[3]; rat, plasma, male SD rats",6220 ng·h/mL
same,AUC(0-t),"[3]; rat, plasma, male SD rats",5830 ng·h/mL
same,Cmax,"[3]; rat, plasma, male SD rats",649 ng/mL
same,half-life,"[3]; rat, plasma, male SD rats",4.5 h
